Reference: PMC12169614, “Exploring Long Arm Amide-Linked Side Chains in the Design of Antifungal Azole Inhibitors of Sterol 14α-Demethylase (CYP51)” (Journal of Medicinal Chemistry, 2025)

What was measured:
[1] = system: Y2301 ScCYP51 Y140F mutant; assay: Agarose (disk) diffusion assay, strain Y2301; assay type: cell-based, S. cerevisiae; conditions: 10 nmol/disk, 30 °C, 48 h
Source text: (§1) Final compounds were screened as racemic mixtures using agarose diffusion assays to visualize their inhibitory activity against a panel of recombinant S. cerevisiae strains i.e., S. cerevisiae strains expressing control levels of wild-type CYP51 (ScCYP51), overexpressed wild-type ScCYP51, overexpressed azole-resistant ScCYP51 Y140F/H mutations and overexpressed C. albicans efflux pumps MDR1a or CDR1B (Figure and Table S1).
(§2) The susceptibilities of S. cerevisiae and Candida species strains to azole compounds were observed as zones of growth inhibition in agarose diffusion assays. The disk diffusion assays were carried out as described by Keniya et al. Complete supplement mixture (CSM) agarose (0.6% agarose [wt/vol]; 20 mL of synthetic defined medium (SD); pH 6.8–7) was solidified in a rectangular Petri dish which was overlaid with CSM agarose (0.6% [wt/vol]; 5 mL; pH 6.8–7) seeded with yeast cells at an optical density (OD600) of 0.008 (118,000 cells per 1 mL of overlay). Azole compounds (10 nmol/disk) were applied to sterile BBL paper disks (Becton Dickinson Co., Sparks, MD) and placed on solidified overlays. Cell growth was assessed after incubation at 30 °C for 48 h.

[2] = system: Y2513 ScCYP51 Y140H mutant; assay: Agarose (disk) diffusion assay, strain Y2513; assay type: cell-based, S. cerevisiae; conditions: 10 nmol/disk, 30 °C, 48 h
Source text: as §1, §2

[3] = system: Y2411 Endog. ScCYP51; assay: MIC80 determination, strain Y2411; assay type: cell-based, S. cerevisiae; conditions: Saccharomyces cerevisiae; for MIC80: strain Y2411 Endog. ScCYP51, SD pH 6.8, 30 °C, 48 h; for MIC: supplement csv, read-out: MIC (nM) S. cerevisiae Y2411
Experimental: (§3) Cells were seeded at an OD600 nm of 0.005 (1.5 × 10^4 CFU), and the plates were incubated at 30 °C with shaking at 200 rpm for 48 h for S. cerevisiae strains and 24 h for C. albicans . Cell growth was assessed by measuring the OD600 nm using a Synergy 2 multimode plate reader (BioTek Instruments, VT, USA). Each MIC80 was determined using triplicate measurements for pools of 4 clones of each strain in three separate experiments.

[4] = system: Y2301 OE ScCYP51 Y140F; assay: MIC80 determination, strain Y2301; assay type: cell-based, S. cerevisiae; conditions: Saccharomyces cerevisiae; for MIC80: 48 h, pH 6.8; for MIC: read-out: MIC (nM) S. cerevisiae Y2301
Experimental: as §3

[5] = system: Y2651 OE CYP51 F5 RaCPR; assay: MIC80 determination, strain Y2651; assay type: cell-based, S. cerevisiae; conditions: Saccharomyces cerevisiae
Experimental: as §3

[6] = system: Y2300 OE ScCYP51; assay: MIC80 determination, strain Y2300; assay type: cell-based, S. cerevisiae; conditions: Saccharomyces cerevisiae; for MIC80: 48 h, pH 6.8; for MIC: read-out: MIC (nM) S. cerevisiae Y2300
Experimental: as §3

[7] = system: Y611 FHB3; assay: MIC80 determination, C. albicans clinical isolate Y611 FHB3; assay type: cell-based; conditions: Candida albicans, 24 h, pH 7
Experimental: as §3

[8] = system: Y1; assay: MIC80 determination, C. albicans clinical isolate Y1; assay type: cell-based; conditions: Candida albicans, pH 7, 24 h
Experimental: as §3

[9] = system: Y2459 OE CaCYP51 CaCpr; assay: MIC80 determination, strain Y2459; assay type: cell-based, S. cerevisiae; conditions: for MIC80: Saccharomyces cerevisiae, 48 h, pH 6.8; for MIC: read-out: MIC (nM) C. albicans model Y2459
Experimental: as §3

[10] = system: Y71 SC5314; assay: MIC80 determination, C. albicans clinical isolate Y71 SC5314; assay type: cell-based; conditions: Candida albicans; for MIC: SC5314, supplement csv; for MIC80: C. albicans clinical isolate Y71 SC5314, pH 7, 24 h
Experimental: as §3

[11] = system: Y570 OE CaCDR1B; assay: MIC80 determination, strain Y570; assay type: cell-based, S. cerevisiae; conditions: for MIC: Candida albicans, read-out: MIC (nM) C. albicans model Y570; for MIC80: Saccharomyces cerevisiae, 48 h, pH 6.8
Experimental: as §3

[12] = system: Y2747 OE AfCYP51B AfCPR AfERG6; assay: MIC80 determination, strain Y2747; assay type: cell-based, S. cerevisiae
Experimental: as §3

[13] = system: Y2746 OE AfCYP51A AfCPR AfERG6; assay: MIC80 determination, strain Y2746; assay type: cell-based, S. cerevisiae; conditions: Saccharomyces cerevisiae
Experimental: as §3

[14] = system: 2711 CnCYP51 OE CnCPR; assay: MIC80 determination, strain 2711; assay type: cell-based, S. cerevisiae
Experimental: as §3

[15] = system: Y610 FHB1; assay: MIC80 determination, C. albicans clinical isolate Y610 FHB1; assay type: cell-based; conditions: Candida albicans; C. albicans clinical isolate Y610 FHB1 (weakly expresses CaCDR1); pH 7, 24 h
Experimental: as §3

[16] = system: Y525 OE CaMDR1a; assay: MIC80 determination, strain Y525; assay type: cell-based, S. cerevisiae; conditions: for MIC80: Saccharomyces cerevisiae, 48 h, pH 6.8; for MIC: read-out: MIC (nM) C. albicans model Y525
Experimental: as §3

[17] = system: Y2649 OE CYP51 F1 RaCPR; assay: MIC80 determination, strain Y2649; assay type: cell-based, S. cerevisiae
Experimental: as §3

[18] = system: Y2374 OE CgCYP51; assay: MIC80 determination, strain Y2374; assay type: cell-based, S. cerevisiae; conditions: Saccharomyces cerevisiae; for MIC: read-out: MIC (nM) C. glabrate model Y2374
Experimental: as §3

[19] = system: Y2513 OE ScCYP51 Y140H; assay: MIC80 determination, strain Y2513; assay type: cell-based, S. cerevisiae; conditions: Saccharomyces cerevisiae; for MIC80: 48 h, pH 6.8; for MIC: read-out: MIC (nM) S. cerevisiae Y2513
Experimental: as §3

[20] = system: Y2716 OE CpCYP51 Y132F; assay: MIC80 determination, strain Y2716; assay type: cell-based, S. cerevisiae
Experimental: as §3

[21] = system: Y433 OE CgCDR1; assay: MIC80 determination, strain Y433; assay type: cell-based, S. cerevisiae; conditions: Saccharomyces cerevisiae
Experimental: as §3

[22] = system: Y2721 OE CpCYP51; assay: MIC80 determination, strain Y2721; assay type: cell-based, S. cerevisiae
Experimental: as §3

[23] = system: Y525 MFS efflux pump CaMDR1a overexpressed; assay: Agarose (disk) diffusion assay, strain Y525; assay type: cell-based, S. cerevisiae; conditions: 10 nmol/disk, 30 °C, 48 h
Source text: as §1, §2

## O=C(NCC(O)(Cn1cncn1)c1ccc(F)cc1F)c1cnc2ccccc2c1 (stereo not shown) [Compound 15, N-(2-(2,4-Difluorophenyl)-2-hydroxy-3-(1H-1,2,4-triazol-1-yl)propyl)quinoline-3-carboxamide]
[1]
  zone of growth inhibition (inhibitory activity in words): showed activity
[2]
  zone of growth inhibition (inhibitory activity in words): showed activity

## O=C(NCC(O)(Cn1cncn1)c1ccc(F)cc1F)c1cccc(-c2ccc(C(F)(F)F)cc2)c1 (stereo not shown) [Compound 23, N-(2-(2,4-Difluorophenyl)-2-hydroxy-3-(1H-1,2,4-triazol-1-yl)propyl)-4’-(trifluoromethyl)-[1,1’-biphenyl]-3-carboxamide]
[3]
  MIC80: 0.037 ± 0.011 µM
  MIC: 37 ± 11 nM
[4]
  MIC80: 0.411 ± 0.071 µM
  MIC: 411 ± 71 nM
[5]
  MIC80: 2.57 ± 0.938 µM
[6]
  MIC80: 0.069 ± 0.039 µM
  MIC: 69 ± 39 nM
[7]
  MIC80: 4.25 µM
[8]
  MIC80: 0.12 µM
[9]
  MIC80: 0.06 ± 0.011 µM
  MIC: 60 ± 11 nM
[10]
  MIC: 100 nM
  MIC80: 0.1 µM
[11]
  MIC: 8100 nM
  MIC80: 8.1 µM
[12]; Aspergillus fumigatus, read-out: MIC (nM) A. fumigatus model Y2747
  MIC: 150 ± 26 nM
[12]; Saccharomyces cerevisiae
  MIC80: 0.15 ± 0.026 µM
[13]
  MIC80: 3.52 ± 0.209 µM
[1]
  zone of growth inhibition (inhibitory activity in words): significantly greater resistance
[14]; Saccharomyces cerevisiae
  MIC80: 0.02 µM
[14]; read-out: MIC (nM) C. neoformans model Y2711
  MIC: 20 nM
[15]
  MIC80: 0.4 ± 0.113 µM
[16]
  MIC80: 0.44 µM
  MIC: 440 nM
[17]; Rhizopus arrhizus, read-out: MIC (nM) R. arrhizus model Y2649
  MIC: 32 ± 19 nM
[17]; Saccharomyces cerevisiae
  MIC80: 0.032 ± 0.019 µM
[18]
  MIC80: 0.076 ± 0.012 µM
  MIC: 76 ± 12 nM
[19]
  MIC80: 0.805 ± 0.121 µM
  MIC: 805 ± 121 nM
[2]
  zone of growth inhibition (inhibitory activity in words): significantly greater resistance
[20]; MIC80 Y2716 versus Y2721
  increase in resistance owing to the CpCYP51 Y132F mutation: > 19 fold
[20]; Saccharomyces cerevisiae
  MIC80: 1.91 ± 0.02 µM
[21]
  MIC80: 13.1 µM
[22]; Saccharomyces cerevisiae
  MIC80: 0.055 ± 0.003 µM
[22]; read-out: MIC (nM) C. parapsilosis model Y2721
  MIC: 55 ± 3 nM

## O=C(NCC(O)(Cn1cncn1)c1ccc(F)cc1F)c1ccc(NC(=O)c2ccc(Cl)cc2)cc1 (stereo not shown) [Compound 26, 4-Chloro-N-(4-((2-(2,4-difluorophenyl)-2-hydroxy-3-(1H-1,2,4-triazol-1-yl)propyl)carbamoyl)phenyl)benzamide]
[3]
  MIC80: 0.039 ± 0.014 µM
  MIC: 39 ± 14 nM
[4]
  MIC80: 0.123 ± 0.038 µM
  MIC: 123 ± 38 nM
[23]
  zone of growth inhibition (inhibitory activity in words): less effective
[6]
  MIC80: 0.182 ± 0.03 µM
  MIC: 182 ± 30 nM
[7]
  MIC80: 19.5 µM
[8]
  MIC80: 0.285 µM
[9]
  MIC80: 0.118 ± 0.003 µM
  MIC: 118 ± 3 nM
[10]
  MIC: 208 ± 83 nM
  MIC80: 0.208 ± 0.083 µM
[11]
  MIC: > 40000 nM
  MIC80: > 40 µM
[15]
  MIC80: 0.95 µM
[16]
  MIC80: > 1 µM
  MIC: > 1000 nM
[18]
  MIC80: 0.205 µM
  MIC: 205 nM
[19]
  MIC80: 0.087 ± 0.004 µM
  MIC: 87 ± 4 nM
[21]
  MIC80: > 40 µM

## O=C(NCc1ccc(-c2ccccc2)cc1)C(Cn1cncn1)c1ccc(F)cc1F (stereo not shown) [Compound 37]
[23]
  zone of growth inhibition (inhibitory activity in words): low inhibitory activity
[1]
  zone of growth inhibition (inhibitory activity in words): low inhibitory activity
[2]
  zone of growth inhibition (inhibitory activity in words): low inhibitory activity

## O=C(NCc1ccc(-c2ccc(Cl)cc2)cc1)C(Cn1cncn1)c1ccc(F)cc1F (stereo not shown) [Compound 38]
[23]
  zone of growth inhibition (inhibitory activity in words): low inhibitory activity
[1]
  zone of growth inhibition (inhibitory activity in words): low inhibitory activity
[2]
  zone of growth inhibition (inhibitory activity in words): low inhibitory activity

## O=C(NCc1ccc(-c2ccc(C(F)(F)F)cc2)cc1)C(Cn1cncn1)c1ccc(F)cc1F (stereo not shown) [Compound 39]
[23]
  zone of growth inhibition (inhibitory activity in words): lacked inhibitory activity
[1]
  zone of growth inhibition (inhibitory activity in words): lacked inhibitory activity
[2]
  zone of growth inhibition (inhibitory activity in words): lacked inhibitory activity

## O=C(NCc1ccc(-c2ccc(OC(F)(F)F)cc2)cc1)C(Cn1cncn1)c1ccc(F)cc1F (stereo not shown) [Compound 40]
[23]
  zone of growth inhibition (inhibitory activity in words): low inhibitory activity
[1]
  zone of growth inhibition (inhibitory activity in words): low inhibitory activity
[2]
  zone of growth inhibition (inhibitory activity in words): low inhibitory activity
